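Following 48 hours of exposure in 96-well plates, responses at five concentrations were used to interpolate endpoints linearly. The concentration for full growth arrest is given as TGI.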

Test systems include ACHN renal; BT-549 breast; DU-145 prostate; HS 578T breast; IGROV1 ovarian; KM12 colon; NCI-H226 lung; PC-3 prostate; RXF 393 renal; SW-620 colon; CAKI-1 renal.
Holding throughout (experiment): DTP human tumour cell line panel, 48 h

In the case of `COc1cc(O)c2c(=O)cc(C3(O)C=CC(=O)C=C3)oc2c1`, the TGI stood at 0.22 µM in the test with ACHN renal; 1.49 µM in the test with BT-549 breast; 3.18 µM in the test with DU-145 prostate; 8.38 µM in the test on HS 578T breast; 0.0328 µM with IGROV1 ovarian; 0.447 µM with KM12 colon. Besides, the TGI with NCI-H226 lung amounted to 1.73 µM; in the test on PC-3 prostate it was 1.37 µM; in the test on RXF 393 renal it was 17.7 µM; with SW-620 colon, 0.0663 µM.
In the case of `N#CC(Cc1ccccc1Br)N(CCC1=CCCCC1)C(c1ccccc1)c1ccccc1` (configuration not stated), the TGI in the test on ACHN renal, with BT-549 breast, in the test with CAKI-1 renal, with DU-145 prostate, with HS 578T breast and in the test on IGROV1 ovarian was above 100 µM throughout. Also, the TGI in the test with KM12 colon, in the test on PC-3 prostate, in the test with RXF 393 renal and with SW-620 colon was above 100 µM each time.
As for `NNc1[nH]c(=S)[nH]c1C(N)=O`, the TGI in the test on BT-549 breast, in the test with DU-145 prostate, in the test on HS 578T breast, in the test on IGROV1 ovarian, in the test on KM12 colon and with NCI-H226 lung was above 100 µM throughout. Also, the TGI in the test with PC-3 prostate, in the test with RXF 393 renal and in the test on SW-620 colon was above 100 µM each time.
For the molecule `C=CCOC(=O)[C@@H]1C[C@@H](OC(C)(C)C)CN1C(=O)[C@@H]1[C@H]2OC(C)(C)O[C@H]2CN1C(=O)OCC1c2ccccc2-c2ccccc21`, the TGI in the test with ACHN renal was found to be 30.1 µM; in the test on BT-549 breast, 37.1 µM; with CAKI-1 renal, 16.9 µM; with DU-145 prostate, 8.12 µM; in the test with HS 578T breast, 42.5 µM; in the test with IGROV1 ovarian, 37.6 µM. For the same molecule, the TGI in the test on KM12 colon was found to be 11 µM; in the test with NCI-H226 lung, 47.7 µM; with PC-3 prostate, 30.8 µM; with RXF 393 renal, 24.7 µM; with SW-620 colon, 43.4 µM.
Regarding `C=C1C(=O)O[C@H]2[C@H]1CC(=O)/C(C)=C/CC[C@@]1(C)O[C@@H]21`, the TGI with ACHN renal came to 1.44 µM; with BT-549 breast, 2 µM; with CAKI-1 renal it was 1.28 µM; in the test on DU-145 prostate, 18.7 µM; with HS 578T breast, 8.62 µM; with IGROV1 ovarian, 6.27 µM. Moreover, the TGI was determined as 7.09 µM in the test with KM12 colon; 19.8 µM with NCI-H226 lung; 6.1 µM in the test with PC-3 prostate; 1.08 µM with RXF 393 renal; 0.768 µM with SW-620 colon.
For `O=C(c1ccccc1)c1sc2c(=O)c(C(=O)c3ccccc3)c(C(=O)c3ccccc3)sc2c(=O)c1C(=O)c1ccccc1`, the concentration for total growth inhibition (TGI) with ACHN renal is above 100 µM; with BT-549 breast, above 100 µM; in the test on CAKI-1 renal it was 34.5 µM; in the test on DU-145 prostate, above 100 µM; with HS 578T breast, above 100 µM; in the test on IGROV1 ovarian, 69.2 µM. Also, the TGI is above 100 µM in the test with KM12 colon; above 100 µM in the test with NCI-H226 lung; above 100 µM in the test with PC-3 prostate; 72.3 µM in the test on RXF 393 renal; above 100 µM with SW-620 colon.
For `COc1cc2cc(C(=O)N3CC(CCl)c4ccccc43)[nH]c2c(OC)c1OC` (configuration not stated), the concentration for total growth inhibition (TGI) with ACHN renal, in the test on BT-549 breast, in the test with CAKI-1 renal, in the test on DU-145 prostate, with HS 578T breast and with IGROV1 ovarian was above 100 µM each time. Further, the TGI in the test with KM12 colon, in the test on NCI-H226 lung, in the test with PC-3 prostate, with RXF 393 renal and in the test on SW-620 colon was above 100 µM in each case.
In the case of `COc1cc(/C=C/c2cc(/C=C/c3ccc(O)c(OC)c3)oc(=O)c2)ccc1O`, the TGI was 15.4 µM in the test with ACHN renal; 12.2 µM in the test with BT-549 breast; 16.1 µM with CAKI-1 renal; 6.82 µM with DU-145 prostate; above 85.3 µM in the test with HS 578T breast; 19.9 µM in the test with IGROV1 ovarian. Also, the TGI in the test with KM12 colon was 18 µM; in the test on NCI-H226 lung, 61.1 µM; with PC-3 prostate it was 20.3 µM; in the test on RXF 393 renal, 1.08 µM; with SW-620 colon it was above 24.5 µM.
In the case of `O=C(NC(Nc1ccc(F)c(Cl)c1)(C(F)(F)F)C(F)(F)F)OCc1ccccc1`, the TGI in the test with ACHN renal is above 100 µM; in the test on BT-549 breast, 33.6 µM; in the test on CAKI-1 renal, above 100 µM; in the test on DU-145 prostate, above 100 µM; with HS 578T breast it was above 100 µM; with IGROV1 ovarian it was above 100 µM. Moreover, the TGI in the test with KM12 colon, with NCI-H226 lung, with PC-3 prostate, with RXF 393 renal and in the test on SW-620 colon was above 100 µM in each case.
Consider `Cc1c(C)c2c(c(N)c1C#N)C(=O)N(CCN1CCNCC1)C2=O`, for which the TGI with ACHN renal, in the test on BT-549 breast, in the test on CAKI-1 renal, in the test with DU-145 prostate, with HS 578T breast and in the test with IGROV1 ovarian was above 100 µM throughout. In addition, the TGI with KM12 colon was above 100 µM; in the test with NCI-H226 lung, above 100 µM; in the test with PC-3 prostate it was above 100 µM; with RXF 393 renal, 70.6 µM; in the test on SW-620 colon it was above 100 µM.
Turning to `C=CC[C@@]1(C)CCCCCCCCC[C@@](C)(CC=C)C1=O`, the TGI in the test on ACHN renal was above 100 µM; in the test with BT-549 breast it was 62.3 µM; with CAKI-1 renal, above 100 µM; in the test on DU-145 prostate, above 100 µM; with HS 578T breast it was 42.9 µM; in the test with IGROV1 ovarian it was above 100 µM. Moreover, the TGI in the test with KM12 colon is 94.5 µM; in the test on NCI-H226 lung it was 48.4 µM; in the test with PC-3 prostate, above 100 µM; in the test with RXF 393 renal, 32.6 µM; in the test on SW-620 colon it was 63.5 µM.
Take `COc1cccc(C2C3=C(COC3=O)Oc3cc4c(cc32)OCO4)c1` (configuration not stated): the TGI is above 53.1 µM in the test on ACHN renal; above 100 µM in the test with BT-549 breast; above 100 µM with CAKI-1 renal; 6.77 µM in the test with DU-145 prostate; above 100 µM with HS 578T breast; above 64.9 µM in the test on IGROV1 ovarian. In addition, the TGI in the test on KM12 colon was 6.43 µM; in the test on PC-3 prostate, above 100 µM; in the test on RXF 393 renal, above 100 µM; in the test with SW-620 colon, above 100 µM.
Regarding `Cc1cc(OCC(=O)N/N=C/C(Br)=C/c2ccccc2)nc(SCC(=O)N/N=C/C(Br)=C/c2ccccc2)n1`, the TGI in the test with ACHN renal, with BT-549 breast, in the test with CAKI-1 renal, in the test with DU-145 prostate, in the test with HS 578T breast and in the test on IGROV1 ovarian was above 100 µM each time. For the same molecule, the TGI with KM12 colon, in the test on PC-3 prostate, in the test with RXF 393 renal and in the test on SW-620 colon was above 100 µM each time.

As a reminder, the TGI is the concentration at which net growth stops.

For the origin of these results see PubChem BioAssay (NCI).
